Results from ChEMBL document CHEMBL6177992, “A First-in-Class Hepatocyte Nuclear Factor 4 Agonist” (J Med Chem, 2025).

Experiments:
[1] = target: T1, Nuclear receptor subfamily 1 group I member 2 (Homo sapiens, UniProt O75469); experiment: Agonist activity at human Gal4-PXR-LBD expressed in HEK293T cells transfected with pFR-Luc/pRLSV40 assessed as relative luminescence at 1 uM measured after 14 to 16 hrs by hybrid reporter gene assay; assay type: cell-based; settings: time 14-16 hrs
T1 sequence (O75469 whole entry): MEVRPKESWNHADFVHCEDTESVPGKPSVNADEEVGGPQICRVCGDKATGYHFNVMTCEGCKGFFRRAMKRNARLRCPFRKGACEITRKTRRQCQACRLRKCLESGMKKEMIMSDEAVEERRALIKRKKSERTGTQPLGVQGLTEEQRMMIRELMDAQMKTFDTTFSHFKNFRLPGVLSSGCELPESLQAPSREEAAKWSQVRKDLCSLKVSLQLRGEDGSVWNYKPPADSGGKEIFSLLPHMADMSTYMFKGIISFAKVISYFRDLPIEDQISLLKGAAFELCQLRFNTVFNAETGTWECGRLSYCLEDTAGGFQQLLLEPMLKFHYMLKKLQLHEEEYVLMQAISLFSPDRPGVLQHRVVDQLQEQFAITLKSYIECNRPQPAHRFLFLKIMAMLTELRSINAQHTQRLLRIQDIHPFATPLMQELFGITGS

[2] = target: T2, CAR (nuclear receptor subfamily 1 group I member 3) (Homo sapiens, UniProt Q14994); experiment: Agonist activity at human Gal4-CARalpha-LBD expressed in HEK293T cells transfected with pFR-Luc/pRLSV40 assessed as relative luminescence at 1 uM measured after 14 to 16 hrs by hybrid reporter gene assay; assay type: cell-based; settings: time 14-16 hrs, read-out: Activity
T2 sequence (Q14994 whole entry): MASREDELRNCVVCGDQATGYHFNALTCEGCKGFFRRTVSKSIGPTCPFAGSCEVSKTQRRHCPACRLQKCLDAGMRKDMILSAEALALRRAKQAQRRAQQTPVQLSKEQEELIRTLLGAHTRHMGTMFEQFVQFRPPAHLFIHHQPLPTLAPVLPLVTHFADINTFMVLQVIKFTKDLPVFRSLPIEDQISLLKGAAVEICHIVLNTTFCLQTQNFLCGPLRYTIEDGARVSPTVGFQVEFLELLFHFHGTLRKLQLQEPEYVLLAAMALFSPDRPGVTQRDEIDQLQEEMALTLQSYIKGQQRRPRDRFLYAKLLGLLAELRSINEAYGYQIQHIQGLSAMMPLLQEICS

`Cc1ccc(C#Cc2ccc(O)c(C(=O)O)c2)c(Cl)c1` was tested, and the Activity [1] was < 20% and the activity at 1 µM [2] was < 20%.
